In patent publication US9738600B2, “ROR gamma (RORγ) modulators” (LEAD PHARMA CEL MODELS IP B.V., priority 2013, dated 2017):

Target: T1, RORγ (Homo sapiens, UniProt P51449)
T1 sequence (P51449 269-508 limits assumed): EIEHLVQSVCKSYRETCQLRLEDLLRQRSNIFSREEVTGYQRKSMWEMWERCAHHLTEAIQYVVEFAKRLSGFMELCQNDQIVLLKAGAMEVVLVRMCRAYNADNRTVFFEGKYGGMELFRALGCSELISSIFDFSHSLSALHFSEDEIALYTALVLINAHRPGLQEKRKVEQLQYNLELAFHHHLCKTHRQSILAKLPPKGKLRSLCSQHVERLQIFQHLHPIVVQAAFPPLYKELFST
Assay: RORγ GAL4 reporter gene assay
Conditions: mean pIC50, inhibition of RORγ (GAL4-RORγ-LBD) in 293FT cells, luciferase readout, overnight incubation
Text: The RORγ ligand-binding domain (LBD) was fused to the yeast GAL4 DNA binding domain (DBD) and placed under the control of the human cytomegalovirus (CMV) immediate early promoter, using expression vector pFN26A (Promega) and standard recombinant DNA cloning methods.
To monitor the inhibitory effect of compounds on RORγ, a transcriptional reporter construct was used. The pGL4.35 vector (Promega) contains nine copies of the GAL4 Upstream Activator Sequence (UAS). This sequence drives the transcription of the luciferase reporter gene luc2P in response to binding of a fusion protein containing the GAL4 DNA binding domain, as for example expressed by the GAL4-RORγ-LBD and GAL4-VP16 expression vectors described above.
The day after transfection, cells were plated into 96 well plates, test compound was added and the plates were incubated overnight. Subsequently, the firefly luciferase activity was quantified using luciferase detection reagent and luminescence readout.
1500 μL of this reagent mixture was added to 5 μg of GAL4 fusion protein expression vector and 5 μg of the transcriptional reporter construct, and incubated at RT for 20 minutes.
Subsequently, the cells were washed with Phosphate Buffered Saline (PBS) (Lonza), after which the PBS was removed. To dissociate the cells, 1 ml of TrypLE Express (Invitrogen) was added to the flask, followed by incubation at RT until the cells visually started to detach. Cells were collected in 5 mL of assay medium (DMEM culture medium (Lonza), 10% dialyzed FBS (Invitrogen) and Pen/Strep (Lonza)) to achieve a single cell suspension. 10×10^6 cells were spun down and re-suspended in 10 mL of assay medium. Subsequently, the cell suspension was added to the transfection mix tube, and then transferred as a whole to a T75 flask (Greiner), followed by overnight (16-24 hours) incubation at 37° C. and 5% CO2.
For compound screening, the cells were harvested (as described above) and counted. […] 80 μL of cell suspension (60,000 cells) was plated per well into a white, flat bottom, tissue culture treated, 96 well screening plates (Greiner).
Test compounds were diluted, starting from a 10 mM dimethylsulfoxide (DMSO) stock solution, to serial dilutions in DMSO at 500× the final test concentration. Subsequently, these solutions were diluted to 5× the final test concentration in two 10-fold-dilution steps in assay medium. The final DMSO concentration of the 5× test compound solution was 1%. 20 μL of the 5× test compound solution was added to each test well of the 96 well plate previously plated with 80 μl cell suspension, resulting in the final test concentration with 0.2% DMSO.
The plates were incubated overnight (16-24 hours) at 37° C. and 5% CO2.
For the luciferase readout, the luciferase reagent (Britelite Plus, Perkin Elmer) was brought to RT. […] The luciferase luminescence signal was measured using a Wallac Victor Microplate Reader (Perkin Elmer).
The half maximum inhibitory concentration (IC50) values for the test compounds were calculated from the luciferase signal using GraphPad Prism software (GraphPad Software).

Row | Compound | IC50 [nM]
1 | CC(C)C(O)(c1ccc(NC(=O)Cc2ccc(S(=O)(=O)NC3CC3)cc2)cc1)C(F)(F)F (centres unmarked) [Example 95, 2-(4-(N-cyclopropylsulfamoyl)phenyl)-N-(4-(1,1,1-trifluoro-2-hydroxy-3-methylbutan-2-yl)phenyl)acetamide] | ≤ 1000
2 | CCS(=O)(=O)c1ccc(CC(=O)Nc2ccc(C(O)(C3CC3)C(F)(F)F)cc2)cc1 (centres unmarked) [Example 73, N-(4-(1-cyclopropyl-2,2,2-trifluoro-1-hydroxyethyl)phenyl)-2-(4-(ethylsulfonyl)phenyl)acetamide] | ≤ 1000
3 | O=C(Cc1ccc(S(=O)(=O)NC2CC2)cc1)Nc1ccc(C(O)(C2CCCC2)C(F)(F)F)cc1 (centres unmarked) [Example 90, N-(4-(1-cyclopentyl-2,2,2-trifluoro-1-hydroxyethyl)phenyl)-2-(4-(N-cyclopropylsulfamoyl)phenyl)acetamide] | ≤ 1000
4 | CCS(=O)(=O)c1ccc(CC(=O)Nc2c(C)cc(C(O)(C(F)(F)F)C(F)(F)F)cc2C)cc1 [Example 23, 2-(4-(ethylsulfonyl)phenyl)-N-(4-(1,1,1,3,3,3-hexafluoro-2-hydroxypropan-2-yl)-2,6-dimethylphenyl)acetamide] | ≤ 1000
5 | Cc1cc(NC(=O)Cc2ccc(S(=O)(=O)NC3CC3)cc2)ccc1C(O)(C(F)(F)F)C(F)(F)F [Example 32, 2-(4-(N-cyclopropylsulfamoyl)phenyl)-N-(4-(1,1,1,3,3,3-hexafluoro-2-hydroxypropan-2-yl)-3-methylphenyl)acetamide] | ≤ 100
6 | CCS(=O)(=O)c1ccc(CC(=O)Nc2ccc(C(O)(CC3CCCC3)C(F)(F)F)cc2)cc1 (centres unmarked) [Example 86, N-(4-(3-cyclopentyl-1,1,1-trifluoro-2-hydroxypropan-2-yl)phenyl)-2-(4-(ethylsulfonyl)phenyl)acetamide] | ≤ 1000
7 | O=C(Cc1ccc(S(=O)(=O)NC2CC2)cc1)Nc1ccc(C(O)(C(F)(F)F)C(F)(F)F)c(Cl)c1 [Example 89, N-(3-chloro-4-(1,1,1,3,3,3-hexafluoro-2-hydroxypropan-2-yl)phenyl)-2-(4-(N-cyclopropylsulfamoyl)phenyl)acetamide] | ≤ 1000
8 | CCCC(O)(c1ccc(NC(=O)Cc2ccc(S(=O)(=O)NC3CC3)cc2)cc1)C(F)(F)F (centres unmarked) [Example 80, 2-(4-(N-cyclopropylsulfamoyl)phenyl)-N-(4-(1,1,1-trifluoro-2-hydroxypentan-2-yl)phenyl)acetamide] | ≤ 1000
9 | CCS(=O)(=O)c1ccc(C(C)C(=O)Nc2ccc(C(O)(C(F)(F)F)C(F)(F)F)cc2)cc1 (centres unmarked) [Example 5, 2-(4-(ethylsulfonyl)phenyl)-N-(4-(1,1,1,3,3,3-hexafluoro-2-hydroxypropan-2-yl)phenyl)propanamide] | ≤ 1000
10 | CCS(=O)(=O)c1ccc(CC(=O)Nc2ccc(C(O)(C(F)(F)F)C(F)(F)F)cc2C)cc1 [Example 31, 2-(4-(ethylsulfonyl)phenyl)-N-(4-(1,1,1,3,3,3-hexafluoro-2-hydroxypropan-2-yl)-2-methylphenyl)acetamide] | ≤ 1000
11 | CCS(=O)(=O)c1ccc(CC(=O)Nc2ccc(C(O)(C(F)(F)F)C(F)(F)F)cn2)cc1 [Example 21, 2-(4-(ethylsulfonyl)phenyl)-N-(5-(1,1,1,3,3,3-hexafluoro-2-hydroxypropan-2-yl)pyridin-2-yl)acetamide] | ≤ 1000
12 | CCS(=O)(=O)c1ccc(CC(=O)Nc2ccc(C(O)(C(F)(F)F)C(F)(F)F)c(C)c2)cc1 [Example 29, 2-(4-(ethylsulfonyl)phenyl)-N-(4-(1,1,1,3,3,3-hexafluoro-2-hydroxypropan-2-yl)-3-methylphenyl)acetamide] | ≤ 100
13 | CC(O)(c1ccc(NC(=O)Cc2ccc(S(=O)(=O)NC3CC3)cc2)cc1)C(F)(F)F (centres unmarked) [Example 78, 2-(4-(N-cyclopropylsulfamoyl)phenyl)-N-(4-(1,1,1-trifluoro-2-hydroxypropan-2-yl)phenyl)acetamide] | ≤ 1000
14 | CCS(=O)(=O)c1ccc(CC(=O)Nc2ccc(C(O)(C(F)(F)F)C(F)(F)F)cc2)cc1F [Example 42, 2-(4-(ethylsulfonyl)-3-fluorophenyl)-N-(4-(1,1,1,3,3,3-hexafluoro-2-hydroxypropan-2-yl)phenyl)acetamide] | ≤ 1000
15 | CCC(O)(c1ccc(NC(=O)Cc2ccc(S(=O)(=O)NC3CC3)cc2)cc1)C(F)(F)F (centres unmarked) [Example 79, 2-(4-(N-cyclopropylsulfamoyl)phenyl)-N-(4-(1,1,1-trifluoro-2-hydroxybutan-2-yl)phenyl)acetamide] | ≤ 1000
16 | O=C(Cc1cccc(S(=O)(=O)NC2CC2)c1)Nc1ccc(C(O)(C(F)(F)F)C(F)(F)F)c(F)c1 [Example 38, 2-(3-(N-cyclopropylsulfamoyl)phenyl)-N-(3-fluoro-4-(1,1,1,3,3,3-hexafluoro-2-hydroxypropan-2-yl)phenyl)acetamide] | ≤ 1000
17 | CCS(=O)(=O)c1ccc(CC(=O)Nc2ccc(C(O)(CC(C)(C)C)C(F)(F)F)cc2)cc1 (centres unmarked) [Example 96, 2-(4-(ethylsulfonyl)phenyl)-N-(4-(1,1,1-trifluoro-2-hydroxy-4,4-dimethylpentan-2-yl)phenyl)acetamide] | ≤ 100
18 | O=C(Cc1ccc(S(=O)(=O)CC2CC2)cc1)Nc1ccc(C(O)(CC2CCCCC2)C(F)(F)F)cc1 (centres unmarked) [Example 69, N-(4-(3-cyclohexyl-1,1,1-trifluoro-2-hydroxypropan-2-yl)phenyl)-2-(4-((cyclopropylmethyl)sulfonyl)phenyl)acetamide] | ≤ 100

Second part, the molecule after the results:

Row | IC50 [nM] | Compound
19 | ≤ 10 | O=C(Cc1ccc(S(=O)(=O)CC2CC2)cc1)Nc1ccc(C(O)(C(F)(F)F)C(F)(F)F)cc1F [Example 46, 2-(4-((cyclopropylmethyl)sulfonyl)phenyl)-N-(2-fluoro-4-(1,1,1,3,3,3-hexafluoro-2-hydroxypropan-2-yl)phenyl)acetamide]
20 | ≤ 1000 | Nc1cc(C(O)(C(F)(F)F)C(F)(F)F)ccc1NC(=O)Cc1ccc(S(=O)(=O)CC2CC2)cc1 [Example 57, N-(2-amino-4-(1,1,1,3,3,3-hexafluoro-2-hydroxypropan-2-yl)phenyl)-2-(4-((cyclopropylmethyl)sulfonyl)phenyl)acetamide]
21 | ≤ 100 | CC(C)CCC(O)(c1ccc(NC(=O)Cc2ccc(S(=O)(=O)CC3CC3)cc2)cc1)C(F)(F)F (centres unmarked) [Example 104, 2-(4-((cyclopropylmethyl)sulfonyl)phenyl)-N-(4-(1,1,1-trifluoro-2-hydroxy-5-methylhexan-2-yl)phenyl)acetamide]
22 | ≤ 1000 | CCS(=O)(=O)c1ccc(CC(=O)Nc2ccc(C(OCC(F)(F)F)(C(F)(F)F)C(F)(F)F)cc2)cc1 [Example 112, 2-(4-(ethylsulfonyl)phenyl)-N-(4-(1,1,1,3,3,3-hexafluoro-2-(2,2,2-trifluoroethoxy)propan-2-yl)phenyl)acetamide]
23 | ≤ 10 | Cc1cc(NC(=O)Cc2ccc(S(=O)(=O)CC3CC3)cc2)ccc1C(O)(C(F)(F)F)C(F)(F)F [Example 44, 2-(4-((cyclopropylmethyl)sulfonyl)phenyl)-N-(4-(1,1,1,3,3,3-hexafluoro-2-hydroxypropan-2-yl)-3-methylphenyl)acetamide]
24 | ≤ 100 | CCOC(c1ccc(NC(=O)Cc2ccc(S(=O)(=O)CC3CC3)cc2)cc1)(C(F)(F)F)C(F)(F)F [Example 53, 2-(4-((cyclopropylmethyl)sulfonyl)phenyl)-N-(4-(2-ethoxy-1,1,1,3,3,3-hexafluoropropan-2-yl)phenyl)acetamide]
25 | ≤ 1000 | CCS(=O)(=O)c1ccc(CC(=O)Nc2ccc(C(OCc3ccccc3)(C(F)(F)F)C(F)(F)F)cc2)cc1 [Example 50, N-(4-(2-(benzyloxy)-1,1,1,3,3,3-hexafluoropropan-2-yl)phenyl)-2-(4-(ethylsulfonyl)phenyl)acetamide]
26 | ≤ 100 | O=C(Nc1ccc(C(O)(C(F)(F)F)C(F)(F)F)cc1)C(O)c1ccc(S(=O)(=O)CC2CC2)cc1 (centres unmarked) [Example 114, 2-(4-((cyclopropylmethyl)sulfonyl)phenyl)-N-(4-(1,1,1,3,3,3-hexafluoro-2-hydroxypropan-2-yl)phenyl)-2-hydroxyacetamide]
27 | ≤ 100 | CCCOC(c1ccc(NC(=O)Cc2ccc(S(=O)(=O)NC3CC3)cc2)cc1)(C(F)(F)F)C(F)(F)F [Example 61, 2-(4-(N-cyclopropylsulfamoyl)phenyl)-N-(4-(1,1,1,3,3,3-hexafluoro-2-propoxypropan-2-yl)phenyl)acetamide]
28 | ≤ 100 | Cc1cc(S(=O)(=O)CC2CC2)ccc1CC(=O)Nc1ccc(C(O)(C(F)(F)F)C(F)(F)F)cc1 [Example 93, 2-(4-((cyclopropylmethyl)sulfonyl)-2-methylphenyl)-N-(4-(1,1,1,3,3,3-hexafluoro-2-hydroxypropan-2-yl)phenyl)acetamide]
29 | ≤ 100 | O=C(Cc1ccc(S(=O)(=O)CC2CC2)cc1)Nc1ccc(C(OCC(F)(F)F)(C(F)(F)F)C(F)(F)F)cc1 [Example 113, 2-(4-((cyclopropylmethyl)sulfonyl)phenyl)-N-(4-(1,1,1,3,3,3-hexafluoro-2-(2,2,2-trifluoroethoxy)propan-2-yl)phenyl)acetamide]
30 | ≤ 1000 | O=C(Cc1ccc(S(=O)(=O)CC2CC2)cc1)Nc1ccc(C(O)C(F)(F)F)cc1 (centres unmarked) [Example 70, 2-(4-((cyclopropylmethyl)sulfonyl)phenyl)-N-(4-(2,2,2-trifluoro-1-hydroxyethyl)phenyl)acetamide]
31 | ≤ 100 | Cc1cc(C(O)(C(F)(F)F)C(F)(F)F)ccc1NC(=O)Cc1ccc(S(=O)(=O)CC2CC2)cc1 [Example 43, 2-(4-((cyclopropylmethyl)sulfonyl)phenyl)-N-(4-(1,1,1,3,3,3-hexafluoro-2-hydroxypropan-2-yl)-2-methylphenyl)acetamide]
32 | ≤ 10 | CCC(O)(c1ccc(NC(=O)Cc2ccc(S(=O)(=O)CC3CC3)cc2)cc1)C(F)(F)F (centres unmarked) [Example 83, 2-(4-((cyclopropylmethyl)sulfonyl)phenyl)-N-(4-(1,1,1-trifluoro-2-hydroxybutan-2-yl)phenyl)acetamide]
